Laboratory results: US20210038607A1, “OXADIAZOLYLTHIOPHENE DERIVATIVES USEFUL AS HISTONE DEACETYLASE INHIBITORS” (Karus Therapeutics Limited, priority 2018, published 2021)

Key:
[1] = biological target: T1, Human HDAC5 (Homo sapiens, UniProt Q9UQL6); experiment: HDAC5 biochemical assay, class IIa-specific substrate; conditions: read-out: HDAC Isoform IC50 (nM) 5
T1 construct: full length with C-terminal His tag, MW=51.1 kDa; His (C); host or cells: baculovirus expression system
Experimental: (§1) Activity against all zinc-dependent HDACs 1 to 11 was assessed by using an acetylated AMC-labeled peptide substrate. The substrate RHKK(Ac)AMC was used for HDAC1, HDAC2, HDAC3, HDAC6 and HDAC10; the substrate used for HDAC8 was RHK(Ac)K(Ac)AMC. Activity against the class IIa HDACs (HDAC4, 5, 7, 9) and HDAC11 was determined using a class IIa-specific substrate, BOC-Lys(trifluoroacetyl)-AMC (“Trifluoroacetyl Lysine”; see Lahm et al, 2007, PNAS, 104, 17335-17340). All assays were based on the AMC-labeled substrate and developer combination.
(§2) The protocol involved a two-step reaction: first, the substrate with the acetylated lysine side chain is incubated with a sample containing HDAC activity, to produce the deacetylated products, which are then digested in the second step by the addition of developer to produce the fluorescent signal proportional to the amount of deacetylated substrates.
Human HDAC5 (GenBank Accession No. NM_005474), full length with C-terminal His tag, MW=51.1 kDa, expressed in baculovirus expression system.
(§3) Assay Buffer: 50 mM Tris-HCl, pH8.0, 137 mM NaCl, 2.7 mM KCl, 1 mM MgC2. Before use, 1 mg/mL BSA and DMSO are added.
(§4) For class IIa HDACs, assay buffer is the same.
HDAC5: 0.05 ng/ul HDAC5 and 50 μM Class IIa HDAC substrate are in the reaction buffer with 1% DMSO final. Incubate for 30 minutes at room temperature.
(§5) Stage 1: Deacetylation of substrate by incubation of HDAC enzymes with compounds
(§6) Stage 2: Development by addition of Developer to digest the deacetylated substrate, and generate the fluorescent colour; Detection: 360/460 Ex/Em

[2] = biological target: T2, Recombinant human HDAC6 (Homo sapiens, UniProt Q9UBN7); experiment: HDAC6 biochemical assay, AMC-labeled peptide substrate; conditions: HDAC6; read-out: HDAC Isoform IC50 (nM) 6
T2 construct: full length, MW=159 kDa; GST (N); host or cells: Sf9 insect cells (baculovirus)
T2 sequence (Q9UBN7 1-1215): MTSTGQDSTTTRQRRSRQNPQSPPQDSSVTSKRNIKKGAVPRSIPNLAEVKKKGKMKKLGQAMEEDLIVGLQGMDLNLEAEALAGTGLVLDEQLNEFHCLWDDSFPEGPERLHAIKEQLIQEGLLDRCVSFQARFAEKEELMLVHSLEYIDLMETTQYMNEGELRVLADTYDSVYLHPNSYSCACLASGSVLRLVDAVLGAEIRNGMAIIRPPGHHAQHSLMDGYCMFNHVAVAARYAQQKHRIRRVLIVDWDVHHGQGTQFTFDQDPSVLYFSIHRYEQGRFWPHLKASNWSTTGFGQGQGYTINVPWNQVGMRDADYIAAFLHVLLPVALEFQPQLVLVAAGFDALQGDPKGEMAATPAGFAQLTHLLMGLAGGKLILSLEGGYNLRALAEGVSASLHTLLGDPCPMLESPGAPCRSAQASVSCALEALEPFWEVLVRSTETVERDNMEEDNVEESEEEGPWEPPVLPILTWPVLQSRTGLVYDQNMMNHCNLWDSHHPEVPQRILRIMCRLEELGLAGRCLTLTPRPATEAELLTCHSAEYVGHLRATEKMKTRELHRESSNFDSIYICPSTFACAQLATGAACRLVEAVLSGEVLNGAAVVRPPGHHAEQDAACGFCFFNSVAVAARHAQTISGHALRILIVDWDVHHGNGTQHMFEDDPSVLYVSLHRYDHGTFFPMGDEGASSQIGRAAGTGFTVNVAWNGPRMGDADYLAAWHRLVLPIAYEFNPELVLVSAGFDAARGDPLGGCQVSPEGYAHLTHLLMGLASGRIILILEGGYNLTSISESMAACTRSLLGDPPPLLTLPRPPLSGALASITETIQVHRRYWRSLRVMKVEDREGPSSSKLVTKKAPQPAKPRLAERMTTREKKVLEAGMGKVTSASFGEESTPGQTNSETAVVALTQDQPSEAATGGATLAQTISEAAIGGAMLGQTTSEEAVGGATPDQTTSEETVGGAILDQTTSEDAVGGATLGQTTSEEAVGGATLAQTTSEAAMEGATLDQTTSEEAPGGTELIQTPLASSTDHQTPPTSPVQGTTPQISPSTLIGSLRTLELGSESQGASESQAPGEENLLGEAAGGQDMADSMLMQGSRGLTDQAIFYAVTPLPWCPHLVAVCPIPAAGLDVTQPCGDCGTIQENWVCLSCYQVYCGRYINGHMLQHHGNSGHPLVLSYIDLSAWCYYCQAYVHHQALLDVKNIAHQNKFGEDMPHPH
Experimental: as §1, §2
Recombinant human HDAC6 (GenBank Accession No. BC069243), full length, MW=159 kDa, was expressed by baculovirus in Sf9 insect cells using an N-terminal GST tag.
as §3
HDAC6: 0.3 ng/ul HDAC6 and 50 μM HDAC substrate are in the reaction buffer with 1% DMSO final. Incubate for 1 hours at 30° C.
as §5, §6

[3] = biological target: T3, Human HDAC4 (Homo sapiens, UniProt P56524); experiment: HDAC4 biochemical assay, class IIa-specific substrate; conditions: read-out: HDAC Isoform IC50 (nM) 4
T3 construct: amino acids 627-1085 with N-terminal GST tag; GST (N); host or cells: baculovirus expression system
Experimental: as §1, §2
Human HDAC4 (GenBank Accession No. NM_006037), amino acids 627-1085 with N-terminal GST tag, MW=75.2 kDa, expressed in baculovirus expression system.
as §3, §4
HDAC4: 0.004 ng/ul HDAC4 and 50 μM Class IIa HDAC substrate are in the reaction buffer with 1% DMSO final. Incubate for 30 minutes at room temperature.
as §5, §6

[4] = biological target: T4, Human HDAC9 (Homo sapiens, UniProt Q9UKV0); experiment: HDAC9 biochemical assay, class IIa-specific substrate; conditions: read-out: HDAC Isoform IC50 (nM) 9
T4 construct: amino acids 604-1066 with C-terminal His tag; His (C); host or cells: baculovirus expression system
Experimental: as §1, §2
Human HDAC9 (GenBank Accession No. NM_178423), amino acids 604-1066 with C-terminal His tag, MW=50.7 kDa, expressed in baculovirus expression system.
as §3, §4
HDAC9: 0.06 ng/ul HDAC9 and 50 μM Class IIa HDAC substrate are in the reaction buffer with 1% DMSO final. Incubate for 30 minutes at room temperature.
as §5, §6

[5] = biological target: T5, Human HDAC1 (Homo sapiens, UniProt Q13547); experiment: HDAC1 biochemical assay, AMC-labeled peptide substrate; conditions: read-out: HDAC Isoform IC50 (nM) 1
T5 construct: full length with C-terminal His-tag and C-terminal FLAG-tag; His (C); FLAG (C); host or cells: baculovirus expression system
Experimental: as §1, §2
Human HDAC1 (GenBank Accession No. NM_004964), full length with C-terminal His-tag and C-terminal FLAG-tag, MW=56 kDa, expressed in baculovirus expression system.
as §3
HDAC1: 0.3 ng/ul HDAC1 and 50 μM HDAC substrate are in the reaction buffer with 1% DMSO final. Incubate for 1 hour at 30° C.
as §5, §6

[6] = biological target: T6, Human HDAC7 (Homo sapiens, UniProt Q8WUI4); experiment: HDAC7 biochemical assay, class IIa-specific substrate; conditions: read-out: HDAC Isoform IC50 (nM) 7
T6 construct: (a.a. 518-end) with N-terminal GST tag; GST (N); host or cells: baculovirus expression system
T6 sequence (Q8WUI4 518-952 limits assumed): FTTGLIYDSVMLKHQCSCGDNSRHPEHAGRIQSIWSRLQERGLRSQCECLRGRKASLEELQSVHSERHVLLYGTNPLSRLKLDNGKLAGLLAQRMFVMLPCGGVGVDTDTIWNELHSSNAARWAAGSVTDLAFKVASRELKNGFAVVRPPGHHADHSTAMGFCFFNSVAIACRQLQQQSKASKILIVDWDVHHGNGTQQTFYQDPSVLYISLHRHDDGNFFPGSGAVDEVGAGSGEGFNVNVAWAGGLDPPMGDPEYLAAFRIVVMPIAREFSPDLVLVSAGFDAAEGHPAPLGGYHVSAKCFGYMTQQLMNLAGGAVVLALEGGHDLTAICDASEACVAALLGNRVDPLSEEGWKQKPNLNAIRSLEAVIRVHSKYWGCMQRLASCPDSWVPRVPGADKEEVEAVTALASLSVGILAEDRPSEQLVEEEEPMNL
Experimental: as §1, §2
Human HDAC7 (GenBank Accession No. AY302468), (a.a. 518-end) with N-terminal GST tag, MW=78 kDa, expressed in baculovirus expression system.
as §3, §4
HDAC7: 0.001 ng/ul HDAC7 and 50 μM Class IIa HDAC substrate are in the reaction buffer with 1% DMSO final. Incubate for 30 minutes at room temperature.
as §5, §6

T5 sequence (Q13547 whole entry, canonical isoform): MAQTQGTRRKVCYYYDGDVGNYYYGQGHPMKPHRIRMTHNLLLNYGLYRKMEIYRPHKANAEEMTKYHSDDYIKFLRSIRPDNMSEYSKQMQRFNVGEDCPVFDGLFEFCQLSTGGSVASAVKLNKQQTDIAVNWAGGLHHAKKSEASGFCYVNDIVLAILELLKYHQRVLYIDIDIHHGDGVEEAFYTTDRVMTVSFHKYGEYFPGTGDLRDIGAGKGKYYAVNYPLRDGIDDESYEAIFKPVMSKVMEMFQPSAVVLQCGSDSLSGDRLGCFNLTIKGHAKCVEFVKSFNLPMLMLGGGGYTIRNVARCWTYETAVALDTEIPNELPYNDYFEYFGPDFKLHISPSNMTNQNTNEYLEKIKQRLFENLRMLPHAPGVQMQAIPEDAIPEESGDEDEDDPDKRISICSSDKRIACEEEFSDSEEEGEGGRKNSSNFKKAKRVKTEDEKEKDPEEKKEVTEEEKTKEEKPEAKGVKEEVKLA
T3 sequence (P56524 627-1084 limits assumed): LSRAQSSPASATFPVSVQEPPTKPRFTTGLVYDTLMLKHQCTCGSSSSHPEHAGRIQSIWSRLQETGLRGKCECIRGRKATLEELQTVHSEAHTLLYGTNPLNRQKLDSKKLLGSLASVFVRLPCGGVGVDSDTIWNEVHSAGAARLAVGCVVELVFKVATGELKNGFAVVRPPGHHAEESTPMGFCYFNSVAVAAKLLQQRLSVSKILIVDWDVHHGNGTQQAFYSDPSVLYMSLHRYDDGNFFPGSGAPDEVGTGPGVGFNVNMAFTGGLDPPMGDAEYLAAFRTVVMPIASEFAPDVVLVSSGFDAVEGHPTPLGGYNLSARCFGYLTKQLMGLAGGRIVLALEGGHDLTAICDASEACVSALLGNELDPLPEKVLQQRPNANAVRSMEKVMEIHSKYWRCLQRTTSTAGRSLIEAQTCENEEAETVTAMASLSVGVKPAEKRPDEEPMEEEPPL
T1 sequence (Q9UQL6 656-1122 limits assumed): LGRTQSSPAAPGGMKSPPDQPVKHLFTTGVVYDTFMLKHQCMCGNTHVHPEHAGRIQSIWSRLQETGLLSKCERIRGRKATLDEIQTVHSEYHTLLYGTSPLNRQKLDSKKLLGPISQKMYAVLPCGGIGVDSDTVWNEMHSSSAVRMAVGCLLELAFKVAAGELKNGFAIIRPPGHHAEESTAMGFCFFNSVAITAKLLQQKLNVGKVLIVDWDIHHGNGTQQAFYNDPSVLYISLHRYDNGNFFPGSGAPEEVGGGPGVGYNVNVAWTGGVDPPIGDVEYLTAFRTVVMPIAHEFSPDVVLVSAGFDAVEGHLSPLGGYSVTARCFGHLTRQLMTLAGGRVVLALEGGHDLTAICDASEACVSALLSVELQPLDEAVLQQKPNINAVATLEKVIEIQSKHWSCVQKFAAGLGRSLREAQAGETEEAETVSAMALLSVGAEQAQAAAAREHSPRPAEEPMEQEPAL
T4 sequence (Q9UKV0 604-1066 isoform Q9UKV0-5): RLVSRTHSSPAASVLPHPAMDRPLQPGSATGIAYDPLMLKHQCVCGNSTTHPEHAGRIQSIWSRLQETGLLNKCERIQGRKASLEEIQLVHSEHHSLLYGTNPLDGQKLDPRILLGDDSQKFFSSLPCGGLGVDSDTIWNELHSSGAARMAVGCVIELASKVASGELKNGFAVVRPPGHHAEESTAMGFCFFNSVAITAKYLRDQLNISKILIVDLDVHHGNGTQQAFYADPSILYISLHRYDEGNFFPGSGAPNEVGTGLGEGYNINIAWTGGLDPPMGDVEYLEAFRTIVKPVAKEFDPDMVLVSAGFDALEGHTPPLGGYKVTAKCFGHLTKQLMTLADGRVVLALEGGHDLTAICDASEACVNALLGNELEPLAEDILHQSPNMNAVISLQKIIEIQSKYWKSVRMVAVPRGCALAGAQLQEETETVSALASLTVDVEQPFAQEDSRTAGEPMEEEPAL

IC50 [1] [nM] | IC50 [2] [nM] | IC50 [3] [nM] | IC50 [4] [nM] | IC50 [5] [nM] | IC50 [6] [nM] | SMILES
≤ 10000 | ≤ 1000 | ≤ 10000 | ≤ 10000 | > 10000 | ≤ 10000 | O=C(O)c1ccc(N(Cc2ccc(-c3noc(C(F)(F)F)n3)s2)c2cnccn2)nn1 [Example DP, 6-[(Pyrazin-2-yl)({5-[5-(trifluoromethyl)-1,2,4-oxadiazol-3-yl]thiophen-2-yl}methyl)amino]pyridazine-3-carboxylic acid]
≤ 1000 | ≤ 10000 | ≤ 10000 | ≤ 10000 | > 10000 | ≤ 10000 | FC(F)(F)c1cnnc(N(Cc2ccc(-c3noc(C(F)(F)F)n3)s2)c2cccnc2)c1 [Example EI, N-(Pyridin-3-yl)-5-(trifluoromethyl)-N-({5-[5-(trifluoromethyl)-1,2,4-oxadiazol-3-yl]thiophen-2-yl}methyl)pyridazin-3-amine]
≤ 10000 | ≤ 10000 | ≤ 10000 | ≤ 10000 | > 10000 | ≤ 10000 | Cc1cnc(N(Cc2ccc(-c3noc(C(F)(F)F)n3)s2)c2cnccn2)nc1 [Example AW, 5-Methyl-N-(pyrazin-2-yl)-N-({5-[5-(trifluoromethyl)-1,2,4-oxadiazol-3-yl]thiophen-2-yl}methyl)pyrimidin-2-amine]
≤ 1000 | ≤ 1000 | ≤ 500 | ≤ 1000 | > 10000 | ≤ 1000 | FC(F)(F)c1nc(-c2ccc(CN(c3cnccn3)c3ccc4ncccc4n3)s2)no1 [Example X, N-(Pyrazin-2-yl)-N-({5-[5-(trifluoromethyl)-1,2,4-oxadiazol-3-yl]thiophen-2-yl}methyl)-1,5-naphthyridin-2-amine]
≤ 1000 | ≤ 10000 | ≤ 1000 | ≤ 10000 | > 10000 | ≤ 1000 | FC(F)(F)c1ncc(N(Cc2ccc(-c3noc(C(F)(F)F)n3)s2)c2cnccn2)cn1 [Example CV, N-(Pyrazin-2-yl)-2-(trifluoromethyl)-N-({5-[5-(trifluoromethyl)-1,2,4-oxadiazol-3-yl]thiophen-2-yl}methyl)pyrimidin-5-amine]
≤ 500 | ≤ 1000 | ≤ 500 | ≤ 500 | > 10000 | ≤ 500 | FC(F)(F)c1nc(-c2ccc(CN(c3cnccn3)c3nccc4cnccc34)s2)no1 [Example AK, N-(Pyrazin-2-yl)-N-({5-[5-(trifluoromethyl)-1,2,4-oxadiazol-3-yl]thiophen-2-yl}methyl)-2,6-naphthyridin-1-amine]
≤ 10000 | ≤ 10000 | > 10000 | > 10000 | > 10000 | > 10000 | Cc1cc(C)nc(N(Cc2ccc(-c3noc(C(F)(F)F)n3)s2)c2cnccn2)n1 [Example AZ, 4,6-Dimethyl-N-(pyrazin-2-yl)-N-({5-[5-(trifluoromethyl)-1,2,4-oxadiazol-3-yl]thiophen-2-yl}methyl)pyrimidin-2-amine]
≤ 500 | ≤ 1000 | ≤ 1000 | ≤ 1000 | > 10000 | ≤ 500 | FC(F)(F)c1nc(-c2ccc(CN(c3cnccn3)c3ccc4nccn4n3)s2)no1 [Example DT, N-{Imidazo[1,2-b]pyridazin-6-yl}-N-({5-[5-(trifluoromethyl)-1,2,4-oxadiazol-3-yl]thiophen-2-yl}methyl)pyrazin-2-amine]
≤ 1000 | ≤ 1000 | ≤ 1000 | ≤ 10000 | > 10000 | ≤ 10000 | CN(C)C(=O)c1ccc(N(Cc2ccc(-c3noc(C(F)(F)F)n3)s2)c2cnccn2)nc1 [Example AC, N,N-Dimethyl-6-[pyrazin-2-yl({5-[5-(trifluoromethyl)-1,2,4-oxadiazol-3-yl]thiophen-2-yl}methyl)amino]pyridine-3-carboxamide]
≤ 500 | ≤ 10000 | ≤ 500 | ≤ 1000 | > 10000 | ≤ 500 | Cc1ncncc1N(Cc1ccc(-c2noc(C(F)(F)F)n2)s1)c1cnccn1 [Example CX, 4-Methyl-N-(pyrazin-2-yl)-N-({5-[5-(trifluoromethyl)-1,2,4-oxadiazol-3-yl]thiophen-2-yl}methyl)pyrimidin-5-amine]
